Test results published in patent publication US9556190B2, “Piperidinyloxy lactone orexin receptor antagonists” (MERCK SHARP & DOHME CORP., priority 2013, dated 2017).

What was measured:
human orexin-2 receptor = human orexin-2 receptor (Homo sapiens (Human), UniProt O43614); test: FLIPR Ca2+ Flux Assay, CHO cells expressing orexin-2 receptor; assay type: cell-based; details: 70 pM Ala-6,12 orexin-A agonist, read-out: hOX2R FLIPR IC50
Description: The utility of the compounds in accordance with the present invention as orexin receptor OX1R and/or OX2R antagonists may be readily determined without undue experimentation by methodology well known in the art, including the “FLIPR Ca^2+ Flux Assay” (Okumura et al., Biochem. Biophys. Res. Comm. 280:976-981, 2001). In a typical experiment the OX1 and OX2 receptor antagonistic activity of the compounds of the present invention was determined in accordance with the following experimental method. For intracellular calcium measurements, Chinese hamster ovary (CHO) cells expressing the rat orexin-1 receptor or the human orexin-2 receptor, are grown in Iscove's modified DMEM containing 2 mM L-glutamine, […], 1% hypoxanthine-thymidine supplement, 100 U/ml penicillin, 100 μg/ml streptomycin and 10% heat-inactivated fetal calf serum (FCS). The cells are seeded at 20,000 cells/well into Becton-Dickinson black 384-well clear bottom sterile plates coated with poly-D-lysine. All reagents were from GIBCO-Invitrogen Corp. The seeded plates are incubated overnight at 37° C. and 5% CO2. Ala-6,12 human orexin-A as the agonist is prepared as a 1 mM stock solution in 1% bovine serum albumin (BSA) and diluted in assay buffer (HBSS containing 20 mM HEPES, 0.1% BSA and 2.5 mM probenecid, pH7.4) for use in the assay at a final concentration of 70 pM. Test compounds are prepared as 10 mM stock solution in DMSO, then diluted in 384-well plates, first in DMSO, then assay buffer. On the day of the assay, cells are washed 3 times with 100 μl assay buffer and then incubated for 60 min (37° C., 5% CO2) in 60 μl assay buffer containing 1 μM Fluo-4AM ester, 0.02% pluronic acid, and 1% BSA. The dye loading solution is then aspirated and cells are washed 3 times with 100 μl assay buffer. 30 μl of that same buffer is left in each well. Within the Fluorescent Imaging Plate Reader (FLIPR, Molecular Devices), test compounds are added to the plate in a volume of 25 μl, incubated for 5 min and finally 25 μl of agonist is added. Fluorescence is measured for each well at 1 second intervals for 5 minutes and the height of each fluorescence peak is compared to the height of the fluorescence peak induced by 70 pM Ala-6,12 orexin-A with buffer in place of antagonist. For each antagonist, IC50 value (the concentration of compound needed to inhibit 50% of the agonist response) is determined. Alternatively, compound potency can be assessed by a radioligand binding assay (described in Bergman et. al. Bioorg. Med. Chem. Lett. 2008, 18, 1425-1430) in which the inhibition constant (Ki) is determined in membranes prepared from CHO cells expressing either the OX1 or OX2 receptor. The intrinsic orexin receptor antagonist activity of a compound which may be used in the present invention may be determined by these assays.

hOX1R = hOX1R (Homo sapiens, UniProt O43613); test: FLIPR Ca2+ Flux Assay, CHO cells expressing orexin-1 receptor; assay type: cell-based; details: 70 pM Ala-6,12 orexin-A agonist

Chain of human orexin-2 receptor (O43614 whole entry): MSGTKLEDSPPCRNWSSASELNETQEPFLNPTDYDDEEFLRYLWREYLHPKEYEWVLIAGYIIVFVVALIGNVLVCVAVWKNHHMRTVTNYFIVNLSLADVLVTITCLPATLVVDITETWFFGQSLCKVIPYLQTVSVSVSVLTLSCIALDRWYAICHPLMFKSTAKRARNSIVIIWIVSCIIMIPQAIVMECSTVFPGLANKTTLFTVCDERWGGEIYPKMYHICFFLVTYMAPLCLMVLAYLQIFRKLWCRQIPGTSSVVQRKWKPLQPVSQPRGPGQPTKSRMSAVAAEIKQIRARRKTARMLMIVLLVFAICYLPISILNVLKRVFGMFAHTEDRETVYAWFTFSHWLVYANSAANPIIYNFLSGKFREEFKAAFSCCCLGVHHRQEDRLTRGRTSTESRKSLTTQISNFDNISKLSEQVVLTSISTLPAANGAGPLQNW

SMILES | IC50 (human orexin-2 receptor) [µM] | IC50 (hOX1R) [µM]
Cc1noc(-c2cccc(F)c2C(=O)N2C[C@H](Oc3nccc4c3C(=O)OC4(C)C)CC[C@H]2C)n1 [Example 17, 4-{[(3R,6R)-1-{[2-fluoro-6-(3-methyl-1,2,4-oxadiazol-5-yl)phenyl]carbonyl}-6-methylpiperidin-3-yl]oxy}-1,1-dimethylfuro[3,4-c]pyridin-3(1H)-one] | 0.102 | 10
C[C@@H]1CC[C@@H](Nc2nccc3c2C(=O)O[C@@H]3C)CN1C(=O)c1ccccc1-n1nccn1 [Example 47, (1R)-1-methyl-4-{[(3R,6R)-6-methyl-1-{[2-(2H-1,2,3-triazol-2-yl)phenyl]carbonyl}piperidin-3-yl]amino}furo[3,4-c]pyridin-3(1H)-one] | 0.035 | 7.26
C[C@@H]1CC[C@@H](Oc2nccc3c2C(=O)OC3(C)C)CN1C(=O)c1c(F)cccc1-n1nccn1 [Example 2, 4-{[(3R,6R)-1-{[2-Fluoro-6-(2H-1,2,3-triazol-2-yl)phenyl]carbonyl}-6-methylpiperidin-3-yl]oxy}-1,1-dimethylfuro[3,4-c]pyridin-3(1H)-one] | 0.044 | 10
